Test results reported in US4540513A, “Decapeptide having gonadotropin releasing activity” (Kanegafuchi Kagaku Kogyo Kabushiki Kaisha, priority 1984, dated 1985).
Where a SMILES comes first, the peptide text is derived from it. [ ]: non-standard residue; d: D form. pGlu = O=C1CC[C@@H](C(=O)O)N1

Tested on: rat prehypophysis (anterior pituitary) cells
Assay: Gonadotropin (LH and FSH) releasing activity, monolayer culture of rat prehypophysis cells, radioimmunoassay of the supernatant
Assay type: cell-based
Protocol: The synthetic or natural decapeptides prepared in Example 1 was dissolved in 1N acetic acid so that the concentration was 1 μg/ml.
A series of half dilutions from 10.24 ng/ml to 10 pg/ml was prepared from the above solution.
Each sample solution in the series was dried in a rotary evaporator by evaporating 1N acetic acid.
The releasing activity was measured by monolayer culture method using rat prehypohysis cells. After rat prehypophysis cells were disperesed with tripsin and Viokase, the dispersed cells were washed well with a culture medium [Dulbecco's modified Eagle's medium (DMEM) containing 100 unit/ml gentamicin, 2.5 μ/ml fungizone, 5% horse serum, 5% human serum, and 2.5% fetal bovine serum]. The cells were inoculated at a density of 5×10^4 cells in each well of a plastic culture tray having 96 wells and precultured for 4 days.
Samples to be tested for gonadotropin releasing activity were added to the fifth-day culture and the culture was further incubated for 24 hours at 37° C. in the presence of 5% CO2.
On the fifth day of the culture the above dried peptide sampls were dissolved in 0.5 ml of the Dulbecco's modified Eagle's medium (DMEM), 0.2 ml of aligot was aded to each well, and the cells were cultured in the well for additional 24 hours.
After the culture, the supernatent of the culture was withdrawn and assayed for LH and FSH with the radio imunoassay kit provided by NIH.

[1] = 24 hours incubation, LH and FSH by radioimmunoassay

## NC(=O)CNC(=O)[C@@H]1CCCN1C(=O)[C@H](Cc1ccc(O)cc1)NC(=O)[C@H](Cc1c[nH]c2ccccc12)NC(=O)CNC(=O)[C@H](Cc1c[nH]cn1)NC(=O)[C@H](CO)NC(=O)[C@H](Cc1c[nH]c2ccccc12)NC(=O)[C@H](Cc1c[nH]cn1)NC(=O)[C@@H]1CCC(=O)N1 [decapeptide of the present invention, pGlu-His-Trp-Ser-His-Gly-Trp-Tyr-Pro-Gly-NH2] ([pGlu]HWSHGWYPG-NH2)
[1]
  lowest detectable amount: 160 pg/mL
  specific activity at the half maximum dose: 3.1 ng/mL
% of the conventional LH-RH in specific activity
  LH and FSH releasing activity, specific activity relative to conventional LH-RH: 30%
Bioassay with rat anterior pituitary cells, % of that of mammalian LHRH
  gonadotropin-releasing potency relative to mammalian LHRH: about 32%
Bioassay with rat anterior pituitary cells, times more potent than chicken LHRH
  gonadotropin-releasing potency relative to chicken LHRH: 8 times
Maximum dose, bigger than that of the control
  LH releasing activity at the maximum dose relative to control: about 3.5 times
Maximum dose, control 200 ng/ml LH
  LH releasing activity at the maximum dose: 3200 ng/ml LH
Purified from chicken hypothalamus extract, times more than the starting material
  activity of the purified relative to the starting material: about 15×10^8 times
